Laboratory results published in US20150099270A1, “METHOD OF SCREENING PHARMACEUTICALS FOR DRUG INTERACTIONS AND NEPHROTOXICITY” (priority 2013, published 2015).

What was measured:
[1] = human, in vivo
Source text: The purpose of this study is to quantify plasma and urinary acetyl-PAH as a measure of tubular function, in the presence of simultaneous measurement of GFR (iothalamate clearance) in healthy subjects. […] Subjects receiving drugs known to interfere with tubular secretion based on a current review of available literature, or a history of known allergic or adverse reactions to diagnostic iodine containing compounds including iothalamate, or PAH were excluded. Subjects with preexisting liver disease (including hepatitis), increased INR, liver transaminases (AST/ALT), bilirubin, serum albumin<3.0 g/dL. Iothalamate (Conray®, Mallinkrodt), and PAH (Merck) infusions were prepared on the morning of the study visit.
On the study day, each subject reported to the General Clinical Research Unit (GCRC) by 8:00 AM on study visit days. A 6-mL blood sample was be obtained for biochemistries (BUN, serum creatinine) and a spot urine sample was obtained for protein:creatinine ratio. Vital signs (heart rate, blood pressure, respiratory rate) were recorded half-hourly throughout each study visit. Subjects had intravenous catheters inserted into forearm veins of each arm for blood collection and intravenous infusion of iothalamate and PAH. […]
Throughout the study, all blood samples were collected in heparinized (green top) tubes, placed on ice immediately, centrifuged within 15 minutes (4,000 RPM), split into 2 plasma aliquots and frozen at −20° C. until analyzed. […] Urine was be placed on ice immediately after collection, and three 8 mL aliquots were frozen at −20° C. until analyzed. The total volume of urine was measured for each collection interval. A 5 mL aliquot of each IV infusate was collected and frozen at −20° C. until analyzed.
Iothalamate and PAH: Iothalamate and PAH concentrations in plasma and urine will be determined using an HPLC assay method developed in our laboratory. […] Separation is achieved using a C18 column, and effluent is monitored at a wavelength of 254 ηm. […]

HK-2 cells = assay: PAH metabolism experiment in HK-2 cells (acetyl-PAH formation quantified by HPLC); assay type: in vitro ADME, human
Method: Acetyl-PAH was quantified by HPLC using a Waters 2690 Separation Module. […] The runtime was 25 minutes for all samples.
HK2 cells were grown in 15 ml of Dulbecco's Modified Eagle Medium (DMEM)/F12 media with 10% Fetal Bovine Serum (FBS) and incubated at 37° C. with 5% CO2. After 5 days of culture, each 75 cm^2 flask of cells was transferred to 2 mls of the culture media and incubated with 200 μg/ml of PAH except for the negative control where no PAH was added. Cells were incubated for 4, 8 and 18 hours each (in triplicate) with or without PAH (control). Cells post incubation were lysed via sonication for 1 minute, then centrifuged at 14,000 RPM for 10 minutes. The supernatant was extracted and acetyl-PAH was quantified by HPLC. After 5 days of culture, the HK2 cell monolayers reached confluence (FIG. 1).
• 1. HK2 cells were grown in 15 ml of Dulbecco's Modified Eagle Medium (DMEM)/F12 media with 10% Fetal Bovine Serum (FBS) and incubated at 37° C. with 5% CO2. […]
Acetyl-PAH was quantified by HPLC using a Waters 2690 Separation Module. […] Quantification of acetyl-PAH formation was determined by calculating the area under the curve for each sample time-point, and determining the cumulative appearance over the entire incubation period (up to 18 hours).

[2] = dogs with azotemia, p=0.025; cited from earlier work

| Rsec (total rate of tubular secretion) [1] [mL/min] | metabolism of PAH to acetyl-PAH (HK-2 cells; HK2 cells, 200 μg/ml PAH, 4, 8 and 18 hours) | mean (±SD) naPAH metabolite concentration (HK-2 cells; HK-2 cells incubated with PAH, HPLC) | SMILES | renal extraction [2] | appearance of acetyl-PAH metabolite in urine and plasma [1] |
| --- | --- | --- | --- | --- | --- |
| 382 ± 154 | time dependent fashion | – | Nc1ccc(C(=O)NCC(=O)O)cc1 [PAH, Para-aminohippuric acid] | 0.57 | – |
| – | – | – | CC[N+](CC)(CC)CC [TEA, tetraethylammonium] | 0.80 | – |
| 581 ± 191 | – | increased over time | CC(=O)Nc1ccc(C(=O)NCC(=O)O)cc1 [acetyl-PAH, 2-[(4-acetamidobenzoyl)amino]acetic acid] | – | appears in high quantities in the urine and plasma |
